ChEMBL document CHEMBL1158350, “Physicochemical and biological characterization of novel macrocycles derived from o-phthalaldehyde” (2009)
In brackets after ≈: the same amount, converted by molar mass. Activity calls are given as the source filed them. The rule behind the calls is not given here.

Tests used:
Fusarium [1] = assay: Antifungal activity against Fusarium at 1000 ug/ml after 3 days by diffusion method; type: functional, organism-based
Aspergillus flavus [2] = assay: Antifungal activity against Aspergillus flavus at 1000 ug/ml after 3 days by diffusion method; type: functional, organism-based
Fusarium [3] = assay: Antifungal activity against Fusarium at 500 ug/ml after 3 days by diffusion method; type: functional, organism-based
Escherichia coli [4] = assay: Antibacterial activity against Escherichia coli MTCC 722 at 1000 ug/ml after 24 hrs by agar diffusion method; type: functional; details: MTCC 722, 24 h, read-out: IZ
Escherichia coli [5] = assay: Antibacterial activity against Escherichia coli MTCC 722 after 24 hrs by liquid dilution method; type: functional; details: MTCC 722, 24 h
Bacillus subtilis [6] = assay: Antibacterial activity against Bacillus subtilis MTCC 619 after 24 hrs by liquid dilution method; type: functional; details: MTCC 619, 24 h
Klebsiella pneumoniae [7] = assay: Antibacterial activity against Klebsiella pneumoniae MTCC 109 at 1000 ug/ml after 24 hrs by agar diffusion method; type: functional; details: MTCC 109, 24 h, read-out: IZ
Bacillus subtilis [8] = assay: Antibacterial activity against Bacillus subtilis MTCC 619 at 1000 ug/ml after 24 hrs by agar diffusion method; type: functional; details: MTCC 619, 24 h, read-out: IZ
Staphylococcus aureus [9] = assay: Antibacterial activity against Staphylococcus aureus MTCC 96 after 24 hrs by liquid dilution method; type: functional; details: MTCC 96, 24 h
Aspergillus flavus [10] = assay: Antifungal activity against Aspergillus flavus at 500 ug/ml after 3 days by diffusion method; type: functional, organism-based
Klebsiella pneumoniae [11] = assay: Antibacterial activity against Klebsiella pneumoniae MTCC 109 after 24 hrs by liquid dilution method; type: functional; details: MTCC 109, 24 h
Staphylococcus aureus [12] = assay: Antibacterial activity against Staphylococcus aureus MTCC 96 at 1000 ug/ml after 24 hrs by agar diffusion method; type: functional; details: MTCC 96, 24 h, read-out: IZ

SMILES	Activity (Fusarium [1])	Activity (Aspergillus flavus [2])	Activity (Fusarium [3])	zone of inhibition at 1000 µg/mL (Escherichia coli [4])	MIC (Escherichia coli [5])	MIC (Bacillus subtilis [6])	zone of inhibition at 1000 µg/mL (Klebsiella pneumoniae [7])	zone of inhibition at 1000 µg/mL (Bacillus subtilis [8])	MIC (Staphylococcus aureus [9])	Activity (Aspergillus flavus [10])	MIC (Klebsiella pneumoniae [11])	zone of inhibition at 1000 µg/mL (Staphylococcus aureus [12])
C1=N/c2ncccc2OCCOc2cccnc2/N=C/c2ccccc2/1	Active	Active	Active	40 mm	1 µg/mL (≈ 2.9 µM)	10 µg/mL (≈ 29 µM)	32 mm	38 mm	5 µg/mL (≈ 14.5 µM)	Active	2 µg/mL (≈ 5.81 µM)	35 mm
Cc1cccc2c1/N=C/c1ccccc1/C=N/c1c(C)cccc1OCCO2	Active	Active	Active	11 mm	–	–	12 mm	12 mm	–	Active	–	14 mm
Cc1ccc2c(c1)/N=C/c1ccccc1/C=N/c1cc(C)ccc1OCCCO2	Active	Active	Active	11 mm	–	–	12 mm	13 mm	–	Active	–	14 mm
CO[C@H]1/C=C/O[C@@]2(C)Oc3c(C)c(O)c4c(O)c(c(/C=N/N5CCN(C)CC5)c(O)c4c3C2=O)NC(=O)/C(C)=C\C=C\[C@H](C)[C@H](O)[C@@H](C)[C@@H](O)[C@@H](C)[C@H](OC(C)=O)[C@@H]1C [RIFAMPIN]	–	–	–	48 mm	0.25 µg/mL (≈ 0.304 µM)	10 µg/mL (≈ 12.2 µM)	45 mm	51 mm	0.25 µg/mL (≈ 0.304 µM)	–	0.25 µg/mL (≈ 0.304 µM)	49 mm
Cc1ccc2c(c1)/N=C/c1ccccc1/C=N/c1cc(C)ccc1OCCO2	Active	Active	Active	13 mm	–	–	10 mm	14 mm	–	Active	–	12 mm
C1=N/c2ccccc2OCCOc2ccccc2/N=C/c2ccccc2/1	Active	Active	Active	10 mm	–	–	12 mm	11 mm	–	Active	–	12 mm
C1=N/c2ncccc2OCCCOc2cccnc2/N=C/c2ccccc2/1	Active	Active	Active	32 mm	2 µg/mL (≈ 5.58 µM)	10 µg/mL (≈ 27.9 µM)	29 mm	35 mm	2 µg/mL (≈ 5.58 µM)	Active	2 µg/mL (≈ 5.58 µM)	30 mm
C1=N/c2cc3ccccc3cc2OCCOc2cc3ccccc3cc2/N=C/c2ccccc2/1	Active	Active	Active	14 mm	–	–	14 mm	15 mm	–	Active	–	15 mm
CC1(C)S[C@@H]2[C@H](NC(=O)[C@H](N)c3ccccc3)C(=O)N2[C@H]1C(=O)O [AMPICILLIN]	–	–	–	8 mm	–	–	7 mm	11 mm	–	–	–	13 mm
Cc1cccc2c1/N=C/c1ccccc1/C=N/c1c(C)cccc1OCCCO2	Active	Active	Active	12 mm	–	–	11 mm	13 mm	–	Active	–	15 mm
C1=N/c2cc3ccccc3cc2OCCCOc2cc3ccccc3cc2/N=C/c2ccccc2/1	Active	Active	Active	13 mm	–	–	11 mm	13 mm	–	Active	–	14 mm
CN[C@@H]1[C@H](O[C@H]2[C@H](O[C@H]3[C@H](O)[C@@H](O)[C@H](N=C(N)N)[C@@H](O)[C@@H]3N=C(N)N)O[C@@H](C)[C@]2(O)C=O)O[C@@H](CO)[C@H](O)[C@H]1O [STREPTOMYCIN]	–	–	–	6 mm	–	2 µg/mL (≈ 3.44 µM)	6 mm	10 mm	–	–	–	12 mm
C1=N/c2ccccc2OCCCOc2ccccc2/N=C/c2ccccc2/1	Active	Active	Active	11 mm	–	–	12 mm	10 mm	–	Active	–	11 mm
